Each structure is given as a SMILES string.

The results in this text go back to US20140171431A1, “AZOLE HETEROCYCLIC COMPOUND, PREPARATION METHOD, PHARMACEUTICAL COMPOSITION AND USE” (priority 2011, published 2014).

In the assay the target is T1, Lp-PLA2 in rabbit serum (Oryctolagus cuniculus, UniProt G1SE06).
T1 construct: from tissue; host or cells: rabbit serum
T1 sequence (G1SE06 22-423): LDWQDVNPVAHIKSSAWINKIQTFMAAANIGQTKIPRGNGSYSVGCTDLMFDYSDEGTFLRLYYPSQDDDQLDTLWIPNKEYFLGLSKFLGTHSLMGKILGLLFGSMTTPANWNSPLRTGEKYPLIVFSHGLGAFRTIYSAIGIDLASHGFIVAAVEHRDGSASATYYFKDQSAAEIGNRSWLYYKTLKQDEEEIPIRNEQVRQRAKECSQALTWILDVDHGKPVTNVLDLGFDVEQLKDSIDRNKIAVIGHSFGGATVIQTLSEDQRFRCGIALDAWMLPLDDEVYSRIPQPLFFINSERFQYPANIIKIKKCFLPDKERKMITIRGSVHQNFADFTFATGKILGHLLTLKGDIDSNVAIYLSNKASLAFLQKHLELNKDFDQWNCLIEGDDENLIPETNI
The assay is described as follows: In vitro inhibitory activity towards the enzyme Lp-PLA2 in rabbit serum, [3H]PAF substrate. Conditions: rabbit serum; for inhibition at 0.1 µM: 100 nM, read-out: inhibition, %. The format is biochemical. The procedure: The activities of compounds were measured using [^3H] labeled platelet activating factor ([^3H]PAF, Perkinelmer, Lot NET910) as the substrate. The reaction was carried out in a system containing 50 mmol/L HEPES and 150 mmol/L NaCl (pH 7.4) in a total volume of 200 μl. First, 10 μL rabbit serum and 10 μl DMSO solution of the test compound were added to the system and preincubated for 10 min at 37° C. Then 20 nM [^3H]PAF was added as listed in table 1 to start the reaction and incubated for a further 10 min at 37° C. After that, 600 μl of CHCl3/MeOH (2:1) was added and the resulting mixture was vortex mixed and the reaction was stopped. After settled for a while, the mixture was centrifugated at 12000×g for 15 min. The supernatant was transferred to a new tube and 200 μl of CHCl3 was added. The mixture was mixed by vortexing and then settled or centrifugated for 2 min. A 100 μl portion of the supernatant was then collected for radioactivity intensity measurement.
The inhibition rate was determined by the following equation:
Inhibitory rate (%)=1−(DPMcompound tube−DPMblank tube)/(DPMcontrol tube−DPMblank tube)*100%
(Note: DPM is radioactivity intensity unit.)

In turn, `CCCCCCCC1NC(Cn2c(SCc3ccc(F)cc3)nc(=O)c3c2CCC3)=NO1` (centres unmarked) [Example 1, 2-(4-fluorobenzylthio)-1-((5-n-heptyl-4,5-dihydro-1,2,4-oxadiazol-3-yl)methyl)-6,7-dihydro-1H-cyclopenta[d]pyrimidin-4(5H)-one] showed an inhibition at 1 µM of 10% and an inhibition at 10 µM of 62.6%.

With `CCCCCCCCCCC1NC(Cn2c(SCc3ccc(F)cc3)nc(=O)c3c2CCC3)=NO1` (centres unmarked) [Example 2, 1-((5-n-decyl-4,5-dihydro-1,2,4-oxadiazol-3-yl)methyl)-2-(4-fluorobenzylthio)-6,7-dihydro-1H-cyclopenta[d]pyrimidin-4(5H)-one], the inhibition at 1 µM worked out at 26.6% and the inhibition at 10 µM is 82.7%.

For the compound `CCCCCCCC1NC(Cn2c(SCc3ccc(F)cc3)cc(=O)c3ccccc32)=NO1` (centres unmarked) [Example 3, 2-(4-fluorobenzylthio)-1-((5-n-heptyl-4,5-dihydro-1,2,4-oxadiazol-3-yl)methyl)quinolin-4(1H)-one], at 10 µM the inhibition was 12.5%.

Consider `CCCC1NC(Cn2c(SCc3ccc(F)cc3)nc(=O)c3c2CCC3)=NO1` (centres unmarked) [Example 6, 2-(4-fluorobenzylthio)-1-((5-n-propyl-4,5-dihydro-1,2,4-oxadiazol-3-yl)methyl)-6,7-dihydro-1H-cyclo-penta[d]pyrimidin-4(5H)-one], for which the inhibition at 1 µM came to 16.2% and the inhibition at 10 µM stood at 74%.

The compound `O=c1nc(SCc2ccc(F)cc2)n(CC2=NOC(c3ccc(-c4ccc(C(F)(F)F)cc4)cc3)N2)c2c1CCC2` (centres unmarked) [Example 7, 2-(4-fluorobenzylthio)-1-((5-(4′-(trifluoromethyl)biphen-yl-4-yl)-4,5-dihydro-1,2,4-oxadiazol-3-yl)methyl)-6,7-dihydro-1H-cyclo-penta[d]pyrimidin-4(5H)-one] displayed an inhibition at 1 µM of 25% and an inhibition at 10 µM of 60.3%.

In turn, `CCCC/C=C/N1C(Cn2c(SCc3ccc(F)cc3)nc(=O)c3c2CCC3)=NOC1CCCCCCC` (centres unmarked) [Example 18, (E)-2-(4-fluorobenzylthio)-1-((5-n-heptyl-4-(n-hex-1-enyl)-4,5-dihydro-1,2,4-ox-adiazol-3-yl)methyl)-6,7-di-hydro-1H-cyclopenta[d]py-rimidin-4(5H)-one] had an inhibition at 1 µM of 7.4% and an inhibition at 10 µM of 41.9%.

`O=c1nc(SCc2cccc(F)c2F)n(CC2=NOC(c3ccc(-c4ccc(C(F)(F)F)cc4)cc3)N2CCN2CCOCC2)c2c1CCC2` (centres unmarked) [Example 19, 2-(2,3-difluorobenzylthio)-1-((4-(2-morpholinoethyl)-5-(4′-(trifluoromethyl)biphenyl-4-yl)-4,5-dihydro-1,2,4-oxadiazol-3-yl)methyl)-6,7-dihydro-1H-cyclopenta[d]pyrimidin-4(5H)-one]: the inhibition at 1 µM is 29% and the inhibition at 10 µM is 76.8%.

`O=c1nc(SCc2ccc(F)cc2)n(CC2=NOC(c3ccc(-c4ccc(C(F)(F)F)cc4)cc3)N2CCN2CCCCC2)c2c1CCC2` (centres unmarked) [Example 20, 2-(4-fluorobenzylthio)-1-((4-(2-(piperidin-1-yl)ethyl)-5-(4′-(trifluoromethyl)biphenyl-4-yl)-4,5-dihydro-1,2,4-oxadiazol-3-yl)methyl)-6,7-dihydro-1H-cyclopenta[d]pyrimidin-4(5H)-one] showed an inhibition at 1 µM of 31% and an inhibition at 10 µM of 86.6%.

Regarding `CCOC(=O)N1CCC(N2C(Cn3c(SCc4cccc(F)c4F)nc(=O)c4c3CCC4)=NOC2c2ccc(-c3ccc(C(F)(F)F)cc3)cc2)CC1` (centres unmarked) [Example 21, ethyl 4-(3-((2-(2,3-difluorobenzylthio)-4-oxo-4,5,6,7-tetrahydro-1H-cyclopenta[d]pyrimidin-1-yl)methyl)-5-(4′-(trifluoromethyl)biphenyl-4-yl)-1,2,4-oxadiazol-4(5H)-yl)piperidine-1-carboxylate], testing at 10 µM gave an inhibition of 51.2%.

As for `CCOC(=O)N1CCC(N2C(Cn3c(SCc4ccc(F)cc4)nc(=O)c4c3CCC4)=NOC2c2ccc(-c3ccc(C(F)(F)F)cc3)cc2)CC1` (centres unmarked) [Example 22], 10 µM produced 63% inhibition.

`O=c1nc(SCc2cccc(F)c2F)n(CC2=NOC(c3ccc(-c4ccc(C(F)(F)F)cc4)cc3)N2CCN2CCCCC2)c2c1CCC2` (centres unmarked) [Example 23, 2-(2,3-difluorobenzylthio)-1-((4-(2-(piperidin-1-yl)ethyl)-5-(4′-(trifluoromethyl)biphenyl-4-yl)-4,5-dihydro-1,2,4-oxadiazol-3-yl)methyl)-6,7-dihydro-1H-cyclopenta[d]pyrimidin-4(5H)-one]: the inhibition at 1 µM stood at 33% and 10 µM produced 82.4% inhibition.

Compound `CCN(CC)CCN1C(Cn2c(SCc3ccc(F)cc3)nc(=O)c3c2CCC3)=NOC1c1ccc(-c2ccc(C(F)(F)F)cc2)cc1` (centres unmarked) [Example 24, 1-((4-(2-(diethylamino)eth-yl)-5-(4′-(trifluorometh-yl)biphenyl-4-yl)-4,5-di-hydro-1,2,4-oxadiazol-3-yl)methyl)-2-(4-fluorobenzyl-thio)-6,7-dihydro-1H-cyclopenta[d]pyrimidin-4(5H)-one] displayed an inhibition at 1 µM of 16.3% and an inhibition at 10 µM of 78.5%.

`O=c1nc(SCc2ccc(F)cc2)n(CC2=NOC(c3ccc(-c4ccc(C(F)(F)F)cc4)cc3)N2CCN2CCOCC2)c2c1CCC2` (centres unmarked) [Example 25, 2-(4-fluorobenzylthio)-1-((4-(2-morpholinoethyl)-5-(4′-(trifluoromethyl)bi-phenyl-4-yl)-4,5-dihydro-1,2,4-oxadiazol-3-yl)meth-yl)-6,7-dihydro-1H-cy-clopenta[d]pyrimidin-4(5H)-one]: testing at 1 µM gave an inhibition of 23% and the inhibition at 10 µM worked out at 74.3%.

`O=c1nc(SCc2ccc(F)cc2)n(Cc2ncc(-c3ccccc3)[nH]2)c2c1CCC2` [Example 26, 2-(4-fluorobenzylthio)-1-((5-phenyl-1H-imidazol-2-yl)methyl)-6,7-dihydro-1H-cyclopenta[d]pyrimidin-4(5H)-one]: the inhibition at 10 µM was 7.4%.

As for `Cn1cc(Cc2cn(Cc3nccn3Cc3ccc(-c4ccc(C(F)(F)F)cc4)cc3)c(SCc3ccc(F)cc3)nc2=O)cn1` [Example 29, 2-(4-fluorobenzylthio)-5-((1-methyl-1H-pyrazol-4-yl)methyl)-1-((1-((4′-(trifluoromethyl)biphenyl-4-yl)methyl)-1H-imidazol-2-yl)methyl)pyrimidin-4(1H)-one], the inhibition at 0.1 µM was 12.6% and the inhibition at 1 µM stood at 64.9%.

In turn, `CCCCCCCCCCCCn1ccnc1Cn1c(SCc2ccc(F)cc2)nc(=O)c2c1CCC2` [Example 30, 1-((1-n-dodecyl-1H-imidazol-2-yl)methyl)-2-(4-fluorobenzylthio)-6,7-dihydro-1H-cyclopenta[d]pyrimidin-4(5H)-one] came in with an inhibition at 1 µM of 42.3% and an inhibition at 10 µM of 87.5%.

`O=c1nc(SCc2ccc(F)cc2)n(Cc2nccn2Cc2ccc(-c3ccc(Cl)cc3)cc2)c2c1CCC2` [Example 32, 1-((1-((4′-chlorobiphenyl-4-yl)methyl)-1H-imidazol-2-yl)methyl)-2-(4-fluorobenzylthio)-6,7-dihydro-1H-cyclopenta[d]pyrimidin-4(5H)-one]: the inhibition at 0.1 µM was determined as 2.1% and 1 µM produced 50% inhibition.

`Cc1ccc(-c2ccc(Cn3ccnc3Cn3cc(Cc4cnn(C)c4)c(=O)nc3SCc3ccc(F)cc3)cc2)cc1` [Example 34, 2-(4-fluorobenzylthio)-5-((1-methyl-1H-pyrazol-4-yl)methyl)-1-((1-((4′-methylbiphenyl-4-yl)methyl)-1H-imidazol-2-yl)methyl)pyrimidin-4(1H)-one] gave an inhibition at 1 µM of 14.6%.

In turn, `CCN(CC)CCn1c(-c2ccc(-c3ccc(C(F)(F)F)cc3)cc2)cnc1Cn1c(SCc2ccc(F)cc2)nc(=O)c2c1CCC2` [Example 38, 1-((1-(2-(diethylamino)ethyl)-5-(4′-(trifluoromethyl)biphenyl-4-yl)-1H-imidazol-2-yl)methyl)-2-(4-fluorobenzylthio)-6,7-dihydro-1H-cyclopenta[d]pyrimidin-4(5H)-one] had an inhibition at 1 µM of 16% and an inhibition at 10 µM of 20.4%.

`Cc1cnc(Cn2c(SCc3ccc(F)cc3)nc(=O)c3c2CCC3)n1Cc1ccc(-c2ccc(C(F)(F)F)cc2)cc1` [Example 40, 2-(4-fluorobenzylthio)-1-((5-methyl-1-((4′-(trifluoromethyl)biphenyl-4-yl)methyl)-1H-imidazol-2-yl)methyl)-6,7-dihydro-1H-cyclopenta[d]pyrimidin-4 (5H)-one]: the inhibition at 0.1 µM turned out to be 53.1% and the inhibition at 1 µM was 90.7%.

In general, inhibition refers to the change of the read-out against control, counted positive when it falls.
